The record followed here is US20170210751A1, “PRMT5 INHIBITORS AND USES THEREOF” (Epizyme, Inc., priority 2014, published 2017).

SMILES strings stand for the structures.

The subject of this assay is Symmetric di-Methyl Arginine in Z-138 cells. The experiment in a line: Z-138 Methylation Assay (In Cell Western for symmetric di-methyl arginine). The assay is classed as cell-based. The note with it: Homo sapiens, 96 hours incubation, symmetric di-methyl arginine normalised to DNA content, read-out: ICW EC50. From the text: Z-138 suspension cells were purchased from ATCC (American Type Culture Collection, Manassas, Va.). RPMI/Glutamax medium, penicillin-streptomycin, heat inactivated fetal bovine serum, and D-PBS were purchased from Life Technologies, Grand Island, N.Y., USA. Odyssey blocking buffer, 800CW goat anti-rabbit IgG (H+L) antibody, and Licor Odyssey infrared scanner were purchased from Licor Biosciences, Lincoln, Nebr., USA. Symmetric di-methyl arginine antibody was purchased from EMD Millipore, Billerica, Mass., USA. 16% Paraformaldehyde was purchased from Electron Microscopy Sciences, Hatfield, Pa., USA.
Z-138 suspension cells were maintained in growth medium (RPMI 1640 supplemented with 10% v/v heat inactivated fetal bovine serum and 100 units/mL penicillin-streptomycin) and cultured at 37° C. under 5% CO2.
Cell Treatment, In Cell Western (ICW) for detection of Symmetric di-Methyl Arginine and DNA content.
Z-138 cells were seeded in assay medium at a concentration of 50,000 cells per mL to a 384-well cell culture plate with 50 μL per well. Compound (100 nL) from 384 well source plates was added directly to 384 well cell plate. Plates were incubated at 37° C., 5% CO2 for 96 hours. After four days of incubation, 40 μL of cells from incubated plates were added to poly-D-lysine coated 384 well culture plates (BD Biosciences 356697). Plates were incubated at room temperature for 30 minutes then incubated at 37° C., 5% CO2 for 5 hours. After the incubation, 40 μL per well of 8% paraformaldehyde in PBS (16% paraformaldahyde was diluted to 8% in PBS) was added to each plate and incubated for 30 minutes. Plates were transferred to a Biotek 405 plate washer and washed 5 times with 100 μL per well of wash buffer (IX PBS with 0.1% Triton X-100 (v/v)). Next […] well of Odyssey blocking buffer were added to each plate and incubated 1 hour at room temperature. Blocking buffer was removed and 20 μL per well of primary antibody was added (symmetric di-methyl arginine diluted 1:100 in Odyssey buffer with 0.1% Tween 20 (v/v)) and plates were incubated overnight (16 hours) at 4° C. Plates were washed 5 times with 100 μL per well of wash buffer. Next 20 μL per well of secondary antibody was added (1:200 800CW goat anti-rabbit IgG (H+L) antibody, 1:1000 DRAQ5 (Biostatus limited) in Odyssey buffer with 0.1% Tween 20 (v/v)) and incubated for 1 hour at room temperature. The plates were washed 5 times with 100 μL per well wash buffer then 1 time with 100 μL per well of water. Plates were allowed to dry at room temperature then imaged on the Licor Odyssey machine which measures integrated intensity at 700 nm and 800 nm wavelengths. Both 700 and 800 channels were scanned.
First, the ratio for each well was determined by:
Each plate included fourteen control wells of DMSO only treatment (minimum inhibition) as well as fourteen control wells for maximum inhibition treated with 3 μM of a reference compound (Background wells). The average of the ratio values for each control type was calculated and used to determine the percent inhibition for each test well in the plate. Reference compound was serially diluted three-fold in DMSO for a total of nine test concentrations, beginning at 3 μM. Percent inhibition was determined and IC50 curves were generated using triplicate wells per concentration of compound.
What is called EC50 is the concentration that produces a half-maximal response. Regarding `CC(=O)N1CCC(Nc2cc(C(=O)NC[C@H](O)CN3CCc4scnc4C3)ccn2)CC1` [Compound 1-30], the EC50 lay within 0.101 to 1 µM.

For `O=C(NC[C@H](O)CN1CCc2cnccc2C1)c1cc(NC2COC2)ncn1` [Compound 2-15], the concentration for a half-maximal effect (EC50) was over 1 µM.

Take `CC(=O)N1CCC(Nc2cc(C(=O)NC[C@H](O)CN3CCc4scc(C)c4C3)ncn2)CC1` [Compound 1-13, (S)-6-((1-acetylpiperidin-4-yl)amino)-N-(2-hydroxy-3-(3-methyl-6,7-dihydrothieno[3,2-c]pyridin-5(4H)-yl)propyl)pyrimidine-4-carboxamide]: the EC50 is under 0.1 µM.

On to `CC(=O)N1CC(Nc2cc(C(=O)NC[C@H](O)CN3CCc4scc(C)c4C3)ncn2)C1` [Compound 1-12, (S)-6-((1-acetylazetidin-3-yl)amino)-N-(2-hydroxy-3-(3-methyl-6,7-dihydrothieno[3,2-c]pyridin-5(4H)-yl)propyl)pyrimidine-4-carboxamide], for which the EC50 is under 0.1 µM.

`CC(=O)N1CCC(Nc2cc(C(=O)NC[C@H](O)CN3CCc4cccnc4C3)ccn2)CC1` [Compound 2-21, (S)-2-((1-acetylpiperidin-4-yl)amino)-N-(3-(5,6-dihydro-1,7-naphthyridin-7(8H)-yl)-2-hydroxypropyl)isonicotinamide]: the EC50 was in the range of 0.101 to 1 µM.

Turning to `CC(=O)N1CCC(Nc2cc(C(=O)NC[C@H](O)CN3CCCc4c3cnn4C)ncn2)CC1` [Compound 3-58], the EC50 was over 1 µM.

Regarding `CC(=O)N1CC(Nc2cc(C(=O)NC[C@H](O)CN3CCc4sc(C)nc4C3)ncn2)C1` [Compound 1-27], the half-maximal effective concentration (EC50) is over 1 µM.

On to `CC(=O)N1CCC(Nc2cc(C(=O)NC[C@H](O)CN3CCc4c(ncn4C)C3)ncn2)CC1` [Compound 3-35, (S)-6-((1-acetylpiperidin-4-yl)amino)-N-(2-hydroxy-3-(1-methyl-6,7-dihydro-1H-imidazo[4,5-c]pyridin-5(4H)-yl)propyl)pyrimidine-4-carboxamide], for which the EC50 was over 1 µM.

Turning to `Cc1nc2c(s1)CN(C[C@@H](O)CNC(=O)c1cc(NC3COC3)ncn1)CC2` [Compound 1-8, (S)—N-(2-hydroxy-3-(2-methyl-6,7-dihydrothiazolo[5,4-c]pyridin-5(4H)-yl)propyl)-6-(oxetan-3-ylamino)pyrimidine-4-carboxamide], the EC50 is over 1 µM.

`CC(=O)N1CCC(Nc2cc(C(=O)NC[C@H](O)CN3CCc4cn[nH]c4C3)ncn2)CC1` [Compound 3-51]: the EC50 is over 1 µM.

For the molecule `CC(=O)N1CC(Nc2cc(C(=O)NC[C@H](O)CN3CCc4[nH]cnc4C3)ncn2)C1` [Compound 3-33, (S)-6-((1-acetylazetidin-3-yl)amino)-N-(3-(6,7-dihydro-1H-imidazo[4,5-c]pyridin-5(4H)-yl)-2-hydroxypropyl)pyrimidine-4-carboxamide], the EC50 was over 1 µM.

`CC(=O)N1CCC(Nc2cc(C(=O)NC[C@H](O)CN3CCc4ccncc4C3)ccn2)CC1` [Compound 2-19, (S)-2-((1-acetylpiperidin-4-yl)amino)-N-(3-(3,4-dihydro-2,7-naphthyridin-2(1H)-yl)-2-hydroxypropyl)isonicotinamide]: the EC50 is over 1 µM.

For `CC(=O)N1CCC(Nc2cc(C(=O)NC[C@H](O)CN3CCc4ccncc4C3)ncn2)CC1` [Compound 2-23, (S)-6-((1-acetylpiperidin-4-yl)amino)-N-(3-(3,4-dihydro-2,7-naphthyridin-2(1H)-yl)-2-hydroxypropyl)pyrimidine-4-carboxamide], the EC50 is over 1 µM.

Consider `CC(=O)N1CCC(Nc2cc(C(=O)NC[C@H](O)CN3CCc4sc(N)nc4C3)ncn2)CC1` [Compound 1-37], for which the EC50 was over 1 µM.

Take `CC(=O)N1CCC(Nc2cc(C(=O)NC[C@H](O)CN3CCc4cnccc4C3)ncn2)CC1` [Compound 2-17, (S)-6-((1-acetylpiperidin-4-yl)amino)-N-(3-(3,4-dihydro-2,6-naphthyridin-2(1H)-yl)-2-hydroxypropyl)pyrimidine-4-carboxamide]: the EC50 is over 1 µM.

Turning to `Cc1nc2c([nH]1)CCN(C[C@@H](O)CNC(=O)c1cc(NC3COC3)ncn1)C2` [Compound 3-41], the EC50 was over 1 µM.

As for `O=C(COc1cccc2cccnc12)NCC(O)CN1CCc2nc[nH]c2C1` (centres unmarked) [Compound 3-10, N-(2-hydroxy-3-{3H,4H,5H,6H,7H-imidazo[4,5-c]pyridin-5-yl}propyl)-2-(quinolin-8-yloxy)acetamide], the EC50 was over 1 µM.

As to `CC(=O)N1CCC(Nc2cc(C(=O)NC[C@H](O)CN3CCc4scc(C)c4C3)ccn2)CC1` [Compound 1-14, (S)-2-((1-acetylpiperidin-4-yl)amino)-N-(2-hydroxy-3-(3-methyl-6,7-dihydrothieno[3,2-c]pyridin-5(4H)-yl)propyl)isonicotinamide], the 50% effective concentration (EC50) was under 0.1 µM.

Consider `CC(=O)N1CCC(Nc2cc(C(=O)NC[C@H](O)CN3CCc4nc(N)sc4C3)ccn2)CC1` [Compound 1-35], for which the EC50 was over 1 µM.

For `CC(=O)N1CCC(Nc2cc(C(=O)NC[C@H](O)CN3CCc4c(ncn4C)C3)ccn2)CC1` [Compound 3-22, (S)-2-((1-acetylpiperidin-4-yl)amino)-N-(2-hydroxy-3-(1-methyl-6,7-dihydro-1H-imidazo[4,5-c]pyridin-5(4H)-yl)propyl)isonicotinamide], the EC50 is over 1 µM.

Take `Cn1cnc2c1CN(C[C@@H](O)CNC(=O)c1cc(NC3COC3)ncn1)CC2` [Compound 3-26, (S)—N-(2-hydroxy-3-(3-methyl-6,7-dihydro-3H-imidazo[4,5-c]pyridin-5(4H)-yl)propyl)-6-(oxetan-3-ylamino)pyrimidine-4-carboxamide]: the concentration for a half-maximal effect (EC50) was over 1 µM.

As to `O=C(NC[C@H](O)CN1CCc2ncccc2C1)c1cc(NC2COC2)ncn1` [Compound 2-12, (S)—N-(3-(7,8-dihydro-1,6-naphthyridin-6(5H)-yl)-2-hydroxypropyl)-6-(oxetan-3-ylamino)pyrimidine-4-carboxamide], the EC50 is over 5 µM.

Regarding `CC(=O)N1CCC(Nc2cc(C(=O)NC[C@H](O)CN3CCc4[nH]ncc4C3)ccn2)CC1` [Compound 3-21], the concentration for a half-maximal effect (EC50) was over 1 µM.

As for `O=C(NC[C@H](O)CN1CCc2[nH]nc(-c3ccccc3)c2C1)c1cc(NC2COC2)ncn1` [Compound 3-17, (S)—N-(2-hydroxy-3-(3-phenyl-6,7-dihydro-1H-pyrazolo[4,3-c]pyridin-5(4H)-yl)propyl)-6-(oxetan-3-ylamino)pyrimidine-4-carboxamide], the EC50 is over 1 µM.

Consider `CC(=O)N1CCC(Nc2cc(C(=O)NC[C@H](O)CN3CCc4sc(N)nc4C3)ccn2)CC1` [Compound 1-34], for which the 50% effective concentration (EC50) was over 1 µM.

Take `CC(=O)N1CC(Nc2cc(C(=O)NC[C@H](O)CN3CCc4oc(C)nc4C3)ncn2)C1` [Compound 4-2, (S)-6-((1-acetylazetidin-3-yl)amino)-N-(2-hydroxy-3-(2-methyl-6,7-dihydrooxazolo[4,5-c]pyridin-5(4H)-yl)propyl)pyrimidine-4-carboxamide]: the EC50 was over 1 µM.

Regarding `CC(=O)N1CC(Nc2cc(C(=O)NC[C@H](O)CN3CCCc4c3cnn4C)ncn2)C1` [Compound 3-46], the EC50 is over 1 µM.

For `Cn1ncc2c1CCCN2C[C@@H](O)CNC(=O)c1cc(NC2COC2)ncn1` [Compound 3-40], the EC50 is over 1 µM.

With `CC(=O)N1CCC(Nc2cc(C(=O)NC[C@H](O)CN3CCc4scnc4C3)ncn2)CC1` [Compound 1-32], the EC50 is over 1 µM.

With `O=C(NC[C@H](O)CN1CCc2ccncc2C1)c1cc(NC2COC2)ncn1` [Compound 2-24], the EC50 was over 1 µM.

Regarding `O=C(COc1cccc2cccnc12)NCC(O)CN1CCc2ccncc2C1` (centres unmarked) [Compound 2-8, N-[2-hydroxy-3-(1,2,3,4-tetrahydro-2,7-naphthyridin-2-yl)propyl]-2-(quinolin-8-yloxy)acetamide], the EC50 is over 1 µM.

For the molecule `CC(=O)N1CCC(Nc2cc(C(=O)NC[C@H](O)CN3CCc4sc(C)nc4C3)ccn2)CC1` [Compound 1-33], the EC50 was over 1 µM.
